T1: IκB-ζ (mouse, UniProt Q9EST8 1-728, limits assumed)
T1 construct: also called MAIL; INAP
T1 sequence (looked up): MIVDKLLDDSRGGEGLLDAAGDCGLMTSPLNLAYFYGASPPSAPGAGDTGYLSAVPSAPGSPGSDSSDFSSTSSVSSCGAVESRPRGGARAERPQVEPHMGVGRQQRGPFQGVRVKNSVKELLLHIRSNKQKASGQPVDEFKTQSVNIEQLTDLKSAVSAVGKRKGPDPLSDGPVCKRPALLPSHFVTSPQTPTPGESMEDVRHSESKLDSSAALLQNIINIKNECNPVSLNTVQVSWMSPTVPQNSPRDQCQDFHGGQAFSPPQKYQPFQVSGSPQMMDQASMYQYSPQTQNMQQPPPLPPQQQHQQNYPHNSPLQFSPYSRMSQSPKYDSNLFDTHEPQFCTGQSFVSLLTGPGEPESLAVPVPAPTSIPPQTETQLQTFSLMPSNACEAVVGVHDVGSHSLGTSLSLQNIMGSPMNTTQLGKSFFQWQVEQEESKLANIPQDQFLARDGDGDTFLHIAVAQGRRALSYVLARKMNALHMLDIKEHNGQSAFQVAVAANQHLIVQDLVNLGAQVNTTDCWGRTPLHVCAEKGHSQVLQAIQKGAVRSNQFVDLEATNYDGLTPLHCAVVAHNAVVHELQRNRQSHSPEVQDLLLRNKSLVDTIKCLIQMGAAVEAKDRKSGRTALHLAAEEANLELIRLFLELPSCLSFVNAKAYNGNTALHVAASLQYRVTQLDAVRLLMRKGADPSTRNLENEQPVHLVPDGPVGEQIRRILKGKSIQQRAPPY


What was measured:
[1] = tested on: peritoneal macrophages or lung-derived normal cells; assay: Northern blot analysis of IκB-ζ, Bcl-3 and IκB-α expression on TLR/IL-1R stimulation; assay type: cell-based, mouse; details: stimulation for 2 hours, FIG. 1a
Description: Peritoneal macrophages and lung primary cells were stimulated with 100 ng ml^−1 BLP, 10 μg ml^−1 PGN, 30 ng ml^−1 MALP-2, 100 nM R-848, 3 μM CpG DNA, 10 ng ml^−1 IL-1β, 10 μg ml^−1 LPS, 100 ng ml^−1 flagellin, and 10 ng ml^−1 TNF-α for 2 hours. Total RNA (10 μg) was extracted and subjected to Northern blot analysis for investigating the expression of IκB-ζ, Bcl-3, IκB-α, and β-actin. b. MEFs from wild-type and MyD88-deficient mice were stimulated with 10 ng ml^−1 IL-1β and 10 μg ml^−1 LPS for the indicated periods. Total RNA (10 μg) was extracted and subjected to Northern blot analysis for investigating the expression of IκB-ζ, Cox-2, IP-10, and β-actin.
Whether IκB-ζ would be induced in response to other TLR ligands was examined based on the fact that stimulation with IL-1 or LPS induces IκB-ζ in macrophage cell lines and fibroblasts, and that IL-1R and the receptor for LPS, TLR4, share the intracellular signaling pathways. […] On the other hand, other IκB family members, IκB-α and Bcl-3, were induced in response to TNF-αas well as a TLR ligand and IL-1. Taken together, unlike IκB-α and Bcl-3, the IκB-ζ induction is specifically detected on the TLR/IL-1R stimulation.

IκB-ζ = molecular target: T1, IκB-ζ; assay: co-immunoprecipitation from peritoneal macrophage lysates, immunoblot with α-IκB-ζ
Source text: RAW 264.7 cells were transiently transfected with luciferase reporter constructs of either mouse IL-6 promoter or ELAM1 promoter together with either a control or the IκB-ζ expression plasmid. Luciferase activities were expressed as fold-increase over the background shown by lysates prepared from untransfected cells. Data are representative of three separate experiments. In all three experiments, cells were stimulated with the indicated concentrations of LPS. b. A certain amount of IκB-ζ expression vector was transiently introduced into untreated RAW 264.7 cells with the indicated amount of IL-6 reporter plasmid. Data are representative of three independent experiments. c. Reporter constructs of either a wild-type or mutant IL-6 promoter were transiently introduced into P19 embryonic canrinoma cells together with either a control or an IκB-ζ expression plasmid. Luciferase activities were normalized in each case of reporter constructs by dividing the increase rate of IκB-ζ-expressed cells over the background shown by lysates by that of mock-expressed cells. d. Chromatin from untreated (−) or LPS-treated (+) (1 μg ml⁻¹ for 3 hours) RAW 264.7 cells were used for ChIp with the indicated antibodies. Precipitated DNA for the IL-6 κB site (left), 3′ region of IL-6 gene (center), or ELAM1 promoter (right) was measured by PCR (ChIP). Data are representative of two independent experiments. e. Unstimulated or LPS-stimulated (10 ng ml⁻¹) peritoneal macrophages were immunoprecepitated with the indicated antibodies. The immunoprecipitated lysates were subsequently immunoblotted with α-IκB-ζ.
Peritoneal macrophages and MEFs were stimulated with the indicated ligands for the indicated periods. The cells were then lysed in a lysis buffer containing 1.0% Nonidet-P40, 150 mM NaCl, 20 mM Tris-Cl (pH 7.5), 5 mM EDTA and protein inhibitor (Roche). The cell lysates were dissolved by SDS-PAGE and transferred on a PVDF membrances. For immunoprecipitation, cell lysates were precleared with Protein G-Sepharose™ (Amersham Pharmacia Biotech) for 2 h and then incubated with Protein G-Sepharose™ containing 1.0 μg of the indicated antibodies for 12 h with stirring at 4° C. The immunoprecipitants were washed four times with lysis buffer, eluted by boiling with Laemnli sample buffer, and subjected to Western blotting using α-IκB-ζ, as described above.

| Molecule | IκB-ζ mRNA induction [1] | Bcl-3 induction [1] | IκB-α induction [1] | binding result (IκB-ζ) |
| --- | --- | --- | --- | --- |
| MALP-2 | strongly induced | – | – | – |
| CCOCc1nc2c(N)nc3ccccc3c2n1CC(C)(C)O [R848] | strongly induced | – | – | – |
| peptidoglycan [PGN] | strongly induced | – | – | – |
| TNF-α | no induction was observed | induced | induced | – |
| IL-1: Interleukin-1; recombinant IL-1β obtained from Genzyme | strongly induced | induced | induced | – |
| flagellin | strongly induced | – | – | – |
| RelB (other, mouse, UniProt Q04863 1-558, looked up) MPSRRAARESAPELGALGSSDLSSLSLTVSRTTDELEIIDEYIKENGFGLDGTQLSEMPRLVPRGPASLSSVTLGPAAPPPPATPSWSCTLGRLVSPGPCPRPYLVITEQPKQRGMRFRYECEGRSAGSILGESSTEASKTLPAIELRDCGGLREVEVTACLVWKDWPHRVHPHSLVGKDCTDGVCRVRLRPHVSPRHSFNNLGIQCVRKKEIEAAIERKIQLGIDPYNAGSLKNHQEVDMNVVRICFQASYRDQQGHLHRMDPILSEPVYDKKSTNTSELRICRINKESGPCTGGEELYLLCDKVQKEDISVVFSTASWEGRADFSQADVHRQIAIVFKTPPYEDLEISEPVTVNVFLQRLTDGVCSEPLPFTYLPRDHDSYGVDKKRKRGLPDVLGELSSSDPHGIESKRRKKKPVFLDHFLPGHSSGLFLPPSALQPADSDFFPASISLPGLEPPGGPDLLDDGFAYDPSAPTLFTMLDLLPPAPPLASAVVGSGGAGATVVESSGPEPLSLDSFAAPGPGDVGTASLVGSNMFPNQYREAAFGGGLLSPGPEAT | – | – | – | no binding |
| RelA (other, mouse, UniProt Q04207 1-549, looked up, Immunoprecipitated with anti-RelA (Santa Cruz); also called NF-κB RelA) MDDLFPLIFPSEPAQASGPYVEIIEQPKQRGMRFRYKCEGRSAGSIPGERSTDTTKTHPTIKINGYTGPGTVRISLVTKDPPHRPHPHELVGKDCRDGYYEADLCPDRSIHSFQNLGIQCVKKRDLEQAISQRIQTNNNPFHVPIEEQRGDYDLNAVRLCFQVTVRDPAGRPLLLTPVLSHPIFDNRAPNTAELKICRVNRNSGSCLGGDEIFLLCDKVQKEDIEVYFTGPGWEARGSFSQADVHRQVAIVFRTPPYADPSLQAPVRVSMQLRRPSDRELSEPMEFQYLPDTDDRHRIEEKRKRTYETFKSIMKKSPFNGPTEPRPPTRRIAVPTRNSTSVPKPAPQPYTFPASLSTINFDEFSPMLLPSGQISNQALALAPSSAPVLAQTMVPSSAMVPLAQPPAPAPVLTPGPPQSLSAPVPKSTQAGEGTLSEALLHLQFDADEDLGALLGNSTDPGVFTDLASVDNSEFQQLLNQGVSMSHSTAEPMLMEYPEAITRLVTGSQRPPDPAPTPLGTSGLPNGLSGDEDFSSIADMDFSALLSQISS | – | – | – | no binding |
| c-Rel (other, mouse, UniProt P15307 2-587, looked up, Immunoprecipitated with anti-c-Rel (Santa Cruz)) ASSGYNPYVEIIEQPRQRGMRFRYKCEGRSAGSIPGERSTDNNRTYPSVQIMNYYGKGKIRITLVTKNDPYKPHPHDLVGKDCRDGYYEAEFGPERRPLFFQNLGIRCVKKKEVKGAIILRISAGINPFNVGEQQLLDIEDCDLNVVRCVFMFFLPDEDGNFTTALPPIVSNPIYDNRAPNTAELRICRVNKNCGSVRGGDEIFLLCDKVQKDDIEVRFVLNDWEARGVFSQADVHRQVAIVFKTPPYCKAILEPVTVKMQLRRPSDQEVSESMDFRYLPDEKDAYGNKSKKQKTTLIFQKLLQDCGHFTEKPRTAPLGSTGEGRFIKKESNLFSHGTVLPEMPRSSGVPGQAEPYYSSCGSISSGLPHHPPAIPSVAHQPTSWPPVTHPTSHPVSTNTLSTFSAGTLSSNSQGILPFLEGPGVSDLSASNSCLYNPDDLARMETPSMSPTDLYSISDVNMLSTRPLSVMAPSTDGMGDTDNPRLVSINLENPSCNARLGPRDLRQLHQMSPASLSAGTSSSSVFVSQSDAFDRSNFSCVDNGLMNEPGLSDDANNPTFVQSSHYSVNTLQSEQLSDPFTYGFFKI | – | – | – | no binding |
| p52 subunit (other, mouse, UniProt Q9WTK5 1-454, looked up) MDNCYDPGLDGIPEYDDFEFSPSIVEPKDPAPETADGPYLVIVEQPKQRGFRFRYGCEGPSHGGLPGASSEKGRKTYPTVKICNYEGPAKIEVDLVTHSDPPRAHAHSLVGKQCSELGVCAVSVGPKDMTAQFNNLGVLHVTKKNMMEIMIQKLQRQRLRSKPQGLTEAERRELEQEAKELKKVMDLSIVRLRFSAFLRASDGSFSLPLKPVISQPIHDSKSPGASNLKISRMDKTAGSVRGGDEVYLLCDKVQKDDIEVRFYEDDENGWQAFGDFSPTDVHKQYAIVFRTPPYHKMKIERPVTVFLQLKRKRGGDVSDSKQFTYYPLVEDKEEVQRKRRKALPTFSQPFGGGSHMGGGSGGSAGGYGGAGGGGSLGFFSSSLAYNPYQSGAAPMGCYPGGGGGAQMAGSRRDTDAGEGAEEPRTPPEAPQGEPQALDTLQRAREYNARLFGLA | – | – | – | no binding |

Reference: US20090158447A1, “TLR ligand and IL-1 Response-Injured Animal Model” (priority 2004, published 2009)
